We go through eight compounds from PubChem BioAssay AID488879 (Sanford-Burnham Center for Chemical Genomics, 2010).

Calls of active or inactive are those of the source. How the calls were made is not given here.

This assay addresses alkaline phosphatase, placental type (Homo sapiens). Put plainly: inhibition of placental alkaline phosphatase – biochemical, uHTS hits, selectivity assay for mouse IAP inhibitor project, dose response (AID 488879). As to conditions: purified human placental alkaline phosphatase, enzymatic inhibition.

Broadly, the IC50 is the concentration that inhibits the measured activity by half. For the compound `Cc1nn(C(C)C)c(C)c1CN1CCC(C(=O)Nc2cccc(-c3cccc(F)c3)c2)CC1`, the IC50 was 56.6 µM. As to `Nc1nnc(CC(=O)N/N=C/c2cc([N+](=O)[O-])cc(Br)c2O)s1`, the IC50 is > 100 µM (inactive). For `COc1ccc(Cl)cc1NC(=S)NCCC(c1ccccc1)c1ccccc1`, the IC50 was 39.4 µM. The result for `O=C(COc1ccccc1C(=O)N/N=C\c1ccc(O)c(O)c1)N/N=C/c1ccc(O)c(O)c1` reads > 100 µM (inactive). Consider `O=C(NNC(=O)c1cc2cc(Br)ccc2oc1=O)c1ccc(O)cc1O`, for which the IC50 is > 100 µM (inactive). The result for `S=C(NCCC(c1ccccc1)c1ccccc1)Nc1cccc(Cl)c1` reads 72.7 µM; that for `CCOc1ccccc1N1CCN(S(=O)(=O)c2ccc3c4c(cccc24)C(=O)N3)CC1`, > 100 µM (inactive). With `CCN(c1ccccc1)S(=O)(=O)c1ccc2[nH]c(=O)[nH]c2c1`, the IC50 was 62.6 µM.
